The values below come from patent US12594262B2, “CAI nanoemulsions” (ForwardVue Pharma, Inc., priority 2019, dated 2026).

The conditions of series [1]: humans, single 5 mg peribulbar injection; cited from earlier work.
Series [2] is described as follows: Stability of CAI to autoclave sterilization, RP-HPLC analysis with UV detection. Particulars: autoclaving, for instance 121° C. for about 30 minutes. Format: physicochemical. The procedure:
Stable sterile formulations can then be prepared by autoclaving for sufficient time at temperatures suitable for effectively killing the microorganisms that may be present in the formulation, for instance, 121° C. for about 30 minutes.

For series [3] the following is noted: cited from earlier work.
For series [4] the following is noted: cited from earlier work. The source holds these as a separate data set.
The conditions of series [5]: cited from earlier work. This is another data set of the same source.

Turning to `C[C@@H]1C[C@H]2[C@@H]3CCC4=CC(=O)C=C[C@]4(C)[C@@]3(F)[C@@H](O)C[C@]2(C)[C@@]1(O)C(=O)CO` [Dexamethasone], in series [1], the “concentration detected in the vitreous cavity” value is 13 ng/mL.
For `NC(=O)c1nnn(Cc2cc(Cl)c(C(=O)c3ccc(Cl)cc3)c(Cl)c2)c1N` [CAI], in series [2], the “decomposition of CAI or formation of new impurities after sterilization” value is listed as “no decomposition of CAI or formation of new impurities could be detected”. Besides, the “plasma concentrations associated with unacceptable toxicity” value in series [3] is recorded as “above 100 micromolar”. Further, the “toxic effects observed in clinical studies” value in series [4] (doses required to achieve circulating levels projected for inhibition of pathological neovascularization) was “cerebellar ataxia, peripheral neuropathy and exacerbation of depression”. In addition, in series [4] (systemic administration, two cases described (Berlin et al. 2002)), the “serious side effect of clinical use” value is listed as “loss of vision”. Moreover, the physiological tissue concentrations in series [5] is on record as 1-10 μM.
